26 compounds from patent US12209087B2, “AKT1 modulators” (Alterome Therapeutics, Inc., priority 2022, dated 2025) can be followed below.

As usually defined, the pIC50 is −log10 of the IC50, conventionally taken in molar units.

SMILES strings stand for the structures. pIC50: −log10 of the molar value.

T1 sequence (P31749 whole entry E17K): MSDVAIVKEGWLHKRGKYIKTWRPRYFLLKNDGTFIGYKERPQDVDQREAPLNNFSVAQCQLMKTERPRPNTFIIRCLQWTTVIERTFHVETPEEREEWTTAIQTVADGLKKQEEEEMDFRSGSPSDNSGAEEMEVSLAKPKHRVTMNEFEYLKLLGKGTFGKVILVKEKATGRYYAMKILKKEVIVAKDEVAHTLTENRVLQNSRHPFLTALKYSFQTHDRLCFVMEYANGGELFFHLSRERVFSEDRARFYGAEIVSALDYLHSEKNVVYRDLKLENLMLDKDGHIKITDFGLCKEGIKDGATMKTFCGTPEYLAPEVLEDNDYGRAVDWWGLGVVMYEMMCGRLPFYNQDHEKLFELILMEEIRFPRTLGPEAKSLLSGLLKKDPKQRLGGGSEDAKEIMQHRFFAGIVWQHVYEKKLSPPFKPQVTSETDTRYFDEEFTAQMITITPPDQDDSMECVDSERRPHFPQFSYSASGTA

The experiment concerns the target T1, full length AKT E17K (Homo sapiens, UniProt P31749, E17K).
T1 construct: host or cells: HEK-293 (ATCC CRL-1573)
In words: NanoBRET Target Engagement (TE) Assay. The class given is cell-based. To be noted: competitive tracer displacement in living cells, read-out: AKT1 E17K IC50. In a few lines:
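Compound and tracer incubated 2 h before luminescence at donor 450 nm and acceptor 600 nm, with extracellular signal inhibited. EC50 by sigmoidal variable-slope regression.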
On to `N#Cc1nc2cc(F)cc(C(=O)NC3CCN(Cc4ccc(-n5c(-c6cccnc6N)nc6ccc(-c7ccccc7)nc65)cc4)CC3)c2s1` [Example 182, N-(1-(4-(2-(2-aminopyridin-3-yl)-5-phenyl-3H-imidazo[4,5-b]pyridin-3-yl)benzyl)piperidin-4-yl)-2-cyano-5-fluorobenzo[d]thiazole-7-carboxamide], for which the pIC50 was 6.22 to 7.22.

Regarding `N#Cc1nc2c(C(=O)NC3CCN(Cc4ccc(-n5c(-c6cccnc6N)nc6ccc(-c7ccccc7)nc65)cc4)CC3)cc(F)cc2s1` [Example 183, N-(1-(4-(2-(2-aminopyridin-3-yl)-5-phenyl-3H-imidazo[4,5-b]pyridin-3-yl)benzyl)piperidin-4-yl)-2-cyano-6-fluorobenzo[d]thiazole-4-carboxamide], the pIC50 was 6.22 to 7.22.

With `N#Cc1nc2cc(C(=O)N3CCN(Cc4ccc(-n5c(-c6cccnc6N)nc6ccc(-c7ccccc7)nc65)cc4)CC3)ccc2s1` [Example 184, 5-(4-(4-(2-(2-aminopyridin-3-yl)-5-phenyl-3H-imidazo[4,5-b]pyridin-3-yl)benzyl)piperazine-1-carbonyl)benzo[d]thiazole-2-carbonitrile], the pIC50 was over 7.82.

Take `N#Cc1nc2cc(C(=O)NC3CCN(Cc4ccc(-n5c(-c6cccnc6N)nc6ccc(-c7ccccc7)nc65)cc4)CC3)ccc2s1` [Example 185, N-(1-(4-(2-(2-aminopyridin-3-yl)-5-phenyl-3H-imidazo[4,5-b]pyridin-3-yl)benzyl)piperidin-4-yl)-2-cyanobenzo[d]thiazole-5-carboxamide]: the pIC50 was over 7.82.

On to `C[C@H]1CN(Cc2ccc(-n3c(-c4cccnc4N)nc4ccc(-c5ccccc5)nc43)cc2)C[C@H](C)N1c1ccnc(C#N)n1` [Example 192, 4-((2S,6S)-4-(4-(2-(2-Aminopyridin-3-yl)-5-phenyl-3H-imidazo[4,5-b]pyridin-3-yl)benzyl)-2,6-dimethylpiperazin-1-yl)pyrimidine-2-carbonitrile], for which the pIC50 is 7.22 to 7.82.

For `C[C@H]1CN(Cc2ccc(-n3c(-c4cccnc4N)nc4ccc(-c5ccccc5)nc43)cc2)C[C@H](C)N1c1nccc(C#N)n1` [Example 193, 2-((2S,6S)-4-(4-(2-(2-Aminopyridin-3-yl)-5-phenyl-3H-imidazo[4,5-b]pyridin-3-yl)benzyl)-2,6-dimethylpiperazin-1-yl)pyrimidine-4-carbonitrile], the pIC50 is 6.22 to 7.22.

`C[C@H]1CN(Cc2ccc(-n3c(-c4cccnc4N)nc4ccc(-c5ccccc5)nc43)cc2)C[C@H](C)N1c1cc(C#N)ncn1` [Example 194, 6-((2S,6S)-4-(4-(2-(2-Aminopyridin-3-yl)-5-phenyl-3H-imidazo[4,5-b]pyridin-3-yl)benzyl)-2,6-dimethylpiperazin-1-yl)pyrimidine-4-carbonitrile]: the negative-log IC50 (pIC50) is 6.22 to 7.22.

With `C[C@@H]1CN(Cc2ccc(-n3c(-c4cccnc4N)nc4ccc(-c5ccccc5)nc43)cc2)C[C@@H](C)N1c1ccnc(C#N)n1` [Example 195, 4-((2R,6R)-4-(4-(2-(2-aminopyridin-3-yl)-5-phenyl-3H-imidazo[4,5-b]pyridin-3-yl)benzyl)-2,6-dimethylpiperazin-1-yl)pyrimidine-2-carbonitrile], the pIC50 was over 7.82.

Consider `C[C@@H]1CN(Cc2ccc(-n3c(-c4cccnc4N)nc4ccc(-c5ccccc5)nc43)cc2)C[C@@H](C)N1c1nccc(C#N)n1` [Example 196, 2-((2R,6R)-4-(4-(2-(2-aminopyridin-3-yl)-5-phenyl-3H-imidazo[4,5-b]pyridin-3-yl)benzyl)-2,6-dimethylpiperazin-1-yl)pyrimidine-4-carbonitrile], for which the pIC50 was 6.22 to 7.22.

With `C[C@@H]1CN(Cc2ccc(-n3c(-c4cccnc4N)nc4ccc(-c5ccccc5)nc43)cc2)C[C@@H](C)N1c1cc(C#N)ncn1` [Example 197, 6-((2R,6R)-4-(4-(2-(2-aminopyridin-3-yl)-5-phenyl-3H-imidazo[4,5-b]pyridin-3-yl)benzyl)-2,6-dimethylpiperazin-1-yl)pyrimidine-4-carbonitrile], the negative-log IC50 (pIC50) is 6.22 to 7.22.

On to `N#Cc1nccc(N2CCN(Cc3ccc(-n4c(-c5cccnc5N)nc5ccc(-c6ccccc6)nc54)cc3)CC23CC3)n1` [Example 198, 4-(7-(4-(2-(2-Aminopyridin-3-yl)-5-phenyl-3H-imidazo[4,5-b]pyridin-3-yl)benzyl)-4,7-diazaspiro[2.5]octan-4-yl)pyrimidine-2-carbonitrile], for which the pIC50 was 7.22 to 7.82.

As to `N#Cc1ccnc(N2CCN(Cc3ccc(-n4c(-c5cccnc5N)nc5ccc(-c6ccccc6)nc54)cc3)CC23CC3)n1` [Example 199, 2-(7-(4-(2-(2-Aminopyridin-3-yl)-5-phenyl-3H-imidazo[4,5-b]pyridin-3-yl)benzyl)-4,7-diazaspiro[2.5]octan-4-yl)pyrimidine-4-carbonitrile], the pIC50 is 6.22 to 7.22.

Consider `N#Cc1cc(N2CCN(Cc3ccc(-n4c(-c5cccnc5N)nc5ccc(-c6ccccc6)nc54)cc3)CC23CC3)ncn1` [Example 200, 6-(7-(4-(2-(2-Aminopyridin-3-yl)-5-phenyl-3H-imidazo[4,5-b]pyridin-3-yl)benzyl)-4,7-diazaspiro[2.5]octan-4-yl)pyrimidine-4-carbonitrile], for which the negative-log IC50 (pIC50) is 7.22 to 7.82.

On to `N#Cc1nccc(NC2C3CCC2CN(Cc2ccc(-n4c(-c5cccnc5N)nc5ccc(-c6ccccc6)nc54)cc2)C3)n1` (centres unmarked) [Example 201, 4-((3-(4-(2-(2-Aminopyridin-3-yl)-5-phenyl-3H-imidazo[4,5-b]pyridin-3-yl)benzyl)-3-azabicyclo[3.2.1]octan-8-yl)amino)pyrimidine-2-carbonitrile], for which the negative logarithm of the IC50 (pIC50) was 6.22 to 7.22.

`N#Cc1cc(NC2C3CCC2CN(Cc2ccc(-n4c(-c5cccnc5N)nc5ccc(-c6ccccc6)nc54)cc2)C3)ncn1` (centres unmarked) [Example 202, 6-((3-(4-(2-(2-Aminopyridin-3-yl)-5-phenyl-3H-imidazo[4,5-b]pyridin-3-yl)benzyl)-3-azabicyclo[3.2.1]octan-8-yl)amino)pyrimidine-4-carbonitrile]: the pIC50 was 5.00 to 6.22.

In the case of `N#Cc1nccc(N2C3CCC2CN(Cc2ccc(-n4c(-c5cccnc5N)nc5ccc(-c6ccccc6)nc54)cc2)C3)n1` [Example 203, 4-(3-(4-(2-(2-Aminopyridin-3-yl)-5-phenyl-3H-imidazo[4,5-b]pyridin-3-yl)benzyl)-3,8-diazabicyclo[3.2.1]octan-8-yl)pyrimidine-2-carbonitrile], the negative-log IC50 (pIC50) was 6.22 to 7.22.

In the case of `N#Cc1ccnc(N2C3CCC2CN(Cc2ccc(-n4c(-c5cccnc5N)nc5ccc(-c6ccccc6)nc54)cc2)C3)n1` [Example 204, 2-(3-(4-(2-(2-Aminopyridin-3-yl)-5-phenyl-3H-imidazo[4,5-b]pyridin-3-yl)benzyl)-3,8-diazabicyclo[3.2.1]octan-8-yl)pyrimidine-4-carbonitrile], the pIC50 is 5.00 to 6.22.

Take `N#Cc1cc(N2C3CCC2CN(Cc2ccc(-n4c(-c5cccnc5N)nc5ccc(-c6ccccc6)nc54)cc2)C3)ncn1` [Example 205, 6-(3-(4-(2-(2-Aminopyridin-3-yl)-5-phenyl-3H-imidazo[4,5-b]pyridin-3-yl)benzyl)-3,8-diazabicyclo[3.2.1]octan-8-yl)pyrimidine-4-carbonitrile]: the pIC50 was 6.22 to 7.22.

`C[C@H]1CN(Cc2ccc(-n3c(-c4cccnc4N)nc4ccc(-c5ccccc5)nc43)cc2)CCN1c1ccnc(C#N)n1` [Example 206, (S)-4-(4-(4-(2-(2-Aminopyridin-3-yl)-5-phenyl-3H-imidazo[4,5-b]pyridin-3-yl)benzyl)-2-methylpiperazin-1-yl)pyrimidine-2-carbonitrile]: the pIC50 is 7.22 to 7.82.

Consider `C[C@H]1CN(Cc2ccc(-n3c(-c4cccnc4N)nc4ccc(-c5ccccc5)nc43)cc2)CCN1c1nccc(C#N)n1` [Example 207, (S)-2-(4-(4-(2-(2-Aminopyridin-3-yl)-5-phenyl-3H-imidazo[4,5-b]pyridin-3-yl)benzyl)-2-methylpiperazin-1-yl)pyrimidine-4-carbonitrile], for which the pIC50 is 6.22 to 7.22.

Turning to `C[C@H]1CN(Cc2ccc(-n3c(-c4cccnc4N)nc4ccc(-c5ccccc5)nc43)cc2)CCN1c1cc(C#N)ncn1` [Example 208, (S)-6-(4-(4-(2-(2-Aminopyridin-3-yl)-5-phenyl-3H-imidazo[4,5-b]pyridin-3-yl)benzyl)-2-methylpiperazin-1-yl)pyrimidine-4-carbonitrile], the pIC50 was 6.22 to 7.22.

Take `N#Cc1nccc(N2CC3CCC(C2)N3Cc2ccc(-n3c(-c4cccnc4N)nc4ccc(-c5ccccc5)nc43)cc2)n1` [Example 211, 4-(8-(4-(2-(2-Aminopyridin-3-yl)-5-phenyl-3H-imidazo[4,5-b]pyridin-3-yl)benzyl)-3,8-diazabicyclo[3.2.1]octan-3-yl)pyrimidine-2-carbonitrile]: the pIC50 is over 7.82.

As for `N#Cc1ccnc(N2CC3CCC(C2)N3Cc2ccc(-n3c(-c4cccnc4N)nc4ccc(-c5ccccc5)nc43)cc2)n1` [Example 212, 2-(8-(4-(2-(2-Aminopyridin-3-yl)-5-phenyl-3H-imidazo[4,5-b]pyridin-3-yl)benzyl)-3,8-diazabicyclo[3.2.1]octan-3-yl)pyrimidine-4-carbonitrile], the negative-log IC50 (pIC50) is 6.22 to 7.22.

As to `N#Cc1cc(N2CC3CCC(C2)N3Cc2ccc(-n3c(-c4cccnc4N)nc4ccc(-c5ccccc5)nc43)cc2)ncn1` [Example 213, 6-(8-(4-(2-(2-Aminopyridin-3-yl)-5-phenyl-3H-imidazo[4,5-b]pyridin-3-yl)benzyl)-3,8-diazabicyclo[3.2.1]octan-3-yl)pyrimidine-4-carbonitrile], the pIC50 is 7.22 to 7.82.

For `N#Cc1nccc(N2CCCN(Cc3ccc(-n4c(-c5cccnc5N)nc5ccc(-c6ccccc6)nc54)cc3)CC2)n1` [Example 214, 4-(4-(4-(2-(2-Aminopyridin-3-yl)-5-phenyl-3H-imidazo[4,5-b]pyridin-3-yl)benzyl)-1,4-diazepan-1-yl)pyrimidine-2-carbonitrile], the negative logarithm of the IC50 (pIC50) was 7.22 to 7.82.

As for `N#Cc1cc(N2CCCN(Cc3ccc(-n4c(-c5cccnc5N)nc5ccc(-c6ccccc6)nc54)cc3)CC2)ncn1` [Example 215, 6-(4-(4-(2-(2-aminopyridin-3-yl)-5-phenyl-3H-imidazo[4,5-b]pyridin-3-yl)benzyl)-1,4-diazepan-1-yl)pyrimidine-4-carbonitrile], the negative-log IC50 (pIC50) is over 7.82.
